Laboratory results as given in PubChem BioAssay (NCI).
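Cells were grown in 96-well plates and exposed to each compound for 48 hours at five concentrations; endpoints were interpolated linearly between bracketing concentrations, or set to the highest concentration if not reached. TGI marks complete inhibition of growth.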 Where a SMILES comes first, the peptide text is derived from it. [ ]: non-standard residue; d: D form. The star is where a group is joined. β3hI = CC[CH](C)[CH](N)CC(=O)O; Octanoyl = CCCCCCCC(=O)*; Aib = CC(C)(N)C(=O)O; tBu = CC(C)(C)*

Columns and labels:
Assay in all cases: inhibition of tumour cell growth, NCI panel, 48 h
UACC-257 melanoma = tested on: UACC-257 melanoma
HOP-62 NSCLC = tested on: HOP-62 NSCLC
SR leukemia = tested on: SR leukemia
SF-539 CNS = tested on: SF-539 CNS
SN12C renal = tested on: SN12C renal
A498 renal = tested on: A498 renal
OVCAR-3 ovarian = tested on: OVCAR-3 ovarian
COLO 205 colon = tested on: COLO 205 colon
RXF 393 renal = tested on: RXF 393 renal
OVCAR-5 ovarian = tested on: OVCAR-5 ovarian
MALME-3M melanoma = tested on: MALME-3M melanoma
OVCAR-4 ovarian = tested on: OVCAR-4 ovarian
HCT-15 colon = tested on: HCT-15 colon
NCI-H460 lung = tested on: NCI-H460 lung
A549 NSCLC = tested on: A549 NSCLC
TK-10 renal = tested on: TK-10 renal
NCI-H226 lung = tested on: NCI-H226 lung
NCI-H522 lung = tested on: NCI-H522 lung

SMILES	TGI (UACC-257 melanoma)	TGI (HOP-62 NSCLC)	TGI (SR leukemia)	TGI (SF-539 CNS)	TGI (SN12C renal)	TGI (A498 renal)	TGI (OVCAR-3 ovarian)	TGI (COLO 205 colon)	TGI (RXF 393 renal)	TGI (OVCAR-5 ovarian)	TGI (MALME-3M melanoma)	TGI (OVCAR-4 ovarian)	TGI (HCT-15 colon)	TGI (NCI-H460 lung)	TGI (A549 NSCLC)	TGI (TK-10 renal)	TGI (NCI-H226 lung)	TGI (NCI-H522 lung)
CCOC(=O)CCC(NC(=O)c1ccc(Nc2nc3ccccc3nc2-c2cccs2)cc1)C(=O)OCC (centres undefined)	> 100 µM	> 100 µM	> 100 µM	> 100 µM	> 100 µM	> 100 µM	> 100 µM	> 100 µM	> 100 µM	> 100 µM	> 100 µM	> 100 µM	> 100 µM	> 100 µM	> 100 µM	> 100 µM	> 100 µM	–
CCCCCCCCCCCCCCCCCCOCC(CO[P+](=O)O)OCCCCCCCCCCCCCCCCCC (centres undefined)	> 50 µM	–	> 50 µM	> 50 µM	> 50 µM	> 50 µM	> 50 µM	> 50 µM	> 50 µM	> 50 µM	–	> 50 µM	> 50 µM	> 50 µM	> 50 µM	> 50 µM	> 50 µM	> 50 µM
O=C(/C=C/c1ccco1)CC(=O)/C=C/c1ccco1	> 100 µM	17.3 µM	17.4 µM	21.2 µM	17.5 µM	36.7 µM	–	–	10.6 µM	23.3 µM	20.9 µM	> 31.6 µM	20.2 µM	22.2 µM	24.5 µM	61.2 µM	–	14.1 µM
COc1cccc(/C=C2\CCCCCC2=O)c1	> 100 µM	> 100 µM	> 100 µM	–	> 100 µM	> 100 µM	> 100 µM	> 100 µM	–	> 100 µM	> 100 µM	> 100 µM	> 100 µM	> 100 µM	> 100 µM	> 100 µM	> 100 µM	> 100 µM
N#CC1=C(N)OC(c2ccc([N+](=O)[O-])cc2)C1(C#N)C#N (centres undefined)	26.5 µM	> 53 µM	41.7 µM	32.1 µM	32.2 µM	27.8 µM	–	16.6 µM	21 µM	41.8 µM	24.1 µM	33.7 µM	27.4 µM	–	> 93.3 µM	26.7 µM	41.5 µM	17.8 µM
COc1ccc(/C=C/C(=O)N[C@@H]2C(=O)N3[C@@H]2SC(C)(C)[C@@H]3C(=O)O)cc1	> 100 µM	> 100 µM	> 100 µM	> 100 µM	> 100 µM	> 100 µM	> 100 µM	> 100 µM	> 100 µM	> 100 µM	–	> 100 µM	> 100 µM	> 100 µM	> 100 µM	> 100 µM	> 100 µM	> 100 µM
Cc1ccc(-c2csc(=Nc3c(C)n(C)n(-c4ccccc4)c3=O)n2CCO)cc1	> 100 µM	> 100 µM	> 100 µM	> 100 µM	> 100 µM	> 100 µM	> 100 µM	–	> 100 µM	> 100 µM	–	> 100 µM	> 100 µM	> 100 µM	> 100 µM	> 100 µM	> 100 µM	–
O=C(O)c1ccc(C(c2c(O)c3ccccc3oc2=O)c2c(O)c3ccccc3oc2=O)cc1	> 100 µM	> 100 µM	> 100 µM	> 100 µM	> 100 µM	> 100 µM	> 100 µM	> 100 µM	> 100 µM	> 100 µM	–	–	> 100 µM	> 100 µM	> 100 µM	–	–	–
CC1CCC2C(C(=O)O[C@H]3C4CCO[C@@H](OC5OC(CO)C(O)C(O)C5O)C4[C@@]4(CO)O[C@@H]34)=CO[C@@H](OC3OC(CO)C(O)C(O)C3O)C12 (some centres undefined)	> 10 µM	> 10 µM	> 10 µM	> 10 µM	> 10 µM	> 10 µM	> 10 µM	–	> 10 µM	> 10 µM	> 10 µM	–	> 10 µM	> 10 µM	> 10 µM	> 10 µM	> 10 µM	–
Cc1n[nH]c(=O)n1/N=C/c1c[nH]c2ccccc12	> 100 µM	> 100 µM	> 100 µM	> 100 µM	> 100 µM	> 100 µM	> 100 µM	> 100 µM	82.3 µM	> 100 µM	> 100 µM	> 100 µM	> 100 µM	> 100 µM	> 100 µM	–	–	> 100 µM
Cc1c2c(n(Cc3ccccn3)c1C)NN=C(C#N)S2(=O)=O	> 100 µM	> 100 µM	> 100 µM	> 100 µM	> 100 µM	> 100 µM	> 100 µM	> 100 µM	–	> 100 µM	–	> 100 µM	> 100 µM	> 100 µM	> 100 µM	> 100 µM	> 100 µM	> 100 µM
CCCCCCCC(=O)NC(C)(C)C(=O)NC(COC(C)(C)C)C(=O)NC(CC(C)C)C(=O)NC(C)(C)C(=O)NC(COC(C)(C)C)C(=O)NC(COC(C)(C)C)C(=O)NC(CC(C)C)C(=O)NC(C)(C)C(=O)NC(COC(C)(C)C)C(=O)NC(C(=O)NC(CC(C)C)C(=O)OC)C(C)CC (centres undefined) (Octanoyl-[Aib]S(tBu)L[Aib]S(tBu)S(tBu)L[Aib]S(tBu)IL-OMe; configuration not given here)	> 25 µM	> 25 µM	17.9 µM	> 25 µM	24.9 µM	14 µM	10.9 µM	15.8 µM	9.99 µM	22.3 µM	–	> 25 µM	> 25 µM	13.8 µM	> 25 µM	21.8 µM	21.1 µM	> 25 µM
COc1cc([N+](=O)[O-])ccc1NC1=CC(=O)CCC1	> 100 µM	> 100 µM	> 100 µM	> 100 µM	> 100 µM	> 100 µM	> 100 µM	> 100 µM	> 100 µM	> 100 µM	> 100 µM	> 100 µM	> 100 µM	> 100 µM	> 100 µM	> 100 µM	> 100 µM	–
CCOC(=O)c1[nH]c2ccccc2c1C(=O)C[C@H](NC(=O)C(F)(F)F)C(=O)OC	> 100 µM	> 100 µM	> 100 µM	> 100 µM	> 100 µM	> 100 µM	> 100 µM	> 100 µM	–	> 100 µM	> 100 µM	> 100 µM	> 100 µM	> 100 µM	> 100 µM	> 100 µM	> 100 µM	> 100 µM
O=C(OC(=C(c1ccccc1)c1ccccc1)N1CCCC1=S)C(c1ccccc1)c1ccccc1	> 10 µM	> 10 µM	> 10 µM	> 10 µM	> 10 µM	> 10 µM	> 10 µM	5.5 µM	> 10 µM	> 10 µM	> 10 µM	> 10 µM	> 10 µM	> 10 µM	> 10 µM	> 10 µM	> 10 µM	–
c1ccc2c(c1)Nc1nc3nonc3nc1N2	> 100 µM	> 100 µM	> 100 µM	–	> 100 µM	> 100 µM	–	> 100 µM	> 100 µM	> 100 µM	> 100 µM	> 100 µM	> 100 µM	> 100 µM	> 100 µM	> 100 µM	> 100 µM	> 100 µM
COc1ccc2oc(C(=O)N3CC(CCl)c4ccc([N+](=O)[O-])cc43)cc2c1 (centres undefined)	> 100 µM	31.5 µM	> 100 µM	> 100 µM	–	58.5 µM	–	> 100 µM	34 µM	–	–	> 100 µM	–	> 100 µM	–	> 100 µM	36.8 µM	–
CC(C)(C)C(=O)C(C(c1ccccc1)N1CCOCC1)N1CCOCC1 (centres undefined)	> 100 µM	> 100 µM	> 100 µM	–	> 100 µM	> 100 µM	> 100 µM	–	> 100 µM	> 100 µM	> 100 µM	> 100 µM	> 100 µM	> 100 µM	> 100 µM	> 100 µM	–	> 100 µM
CCC(C)C(CC(=O)N1CCCC1C(=O)NC(C(=O)NC(C(=O)NCC(=O)NC(CC(N)=O)C(=O)NC(C(=O)NC(C(=O)NC(CCCCN)C(N)=O)C(C)CC)C(C)CC)C(C)C)C(C)CC)NC(=O)C(N)C(C)CC (stereo not drawn) (H-I[β3hI]PIVGNIIK-NH2; configuration not given here)	> 50 µM	> 50 µM	> 50 µM	> 50 µM	> 50 µM	> 50 µM	> 50 µM	> 50 µM	–	> 50 µM	> 50 µM	> 50 µM	> 50 µM	–	> 50 µM	> 50 µM	> 50 µM	> 50 µM
CCOC(=O)C1=c2[nH]c3cccc4cccc(c43)n2C=C(C(C)=O)C1CC(C)=O (centres undefined)	> 100 µM	> 100 µM	> 100 µM	–	> 100 µM	> 100 µM	> 100 µM	> 100 µM	> 100 µM	> 100 µM	–	> 100 µM	> 100 µM	> 100 µM	> 100 µM	> 100 µM	–	–
COc1ccc2[nH]c3c(c2c1)COc1ccccc1C3=O	> 100 µM	> 100 µM	> 100 µM	> 100 µM	> 100 µM	> 100 µM	> 100 µM	> 100 µM	–	> 100 µM	> 100 µM	> 100 µM	> 100 µM	> 100 µM	> 100 µM	> 100 µM	> 100 µM	> 100 µM
